Test results: patent publication US20260125375A1 (Pfizer Inc., priority 2022, published 2026)

Legend:
WT CBL-B (36-427) = target: T1, WT CBL-B (36-427) (Homo sapiens, UniProt Q13191); assay: Surface Plasmon Resonance (SPR) assay, binding affinity and kinetics, CBL-B; conditions: SPR at 10° C., biotinylated WT CBL-B (36-427) on streptavidin chip; geometric mean; read-out: CBL-B SPR Kd (nM) GMean
T1 construct: N-terminal biotinylated WT CBL-B (36-427) and C-CBL (46-435) were captured on a streptavidin (SA) coated sensor chip
Protocol: (§1) Surface Plasmon Resonance (SPR) Assay
(§2) The purpose of the SPR assay is to evaluate the binding affinity and kinetics of the compound of disclosure binding to CBL-B and C-CBL.
(§3) The binding affinity and kinetics of compound binding to CBL-B and C-CBL were measured by Surface Plasmon Resonance (SPR) using either Biacore S200, 8K or 8K+ (Cytiva, Marlborough, MA) instruments. N-terminal biotinylated WT CBL-B (36-427) and C-CBL (46-435) were captured on a streptavidin (SA) coated sensor chip to achieve approximately 5000 to 6000 RUs of surface density. Un-functionalized SA surfaces with no immobilized protein served as reference for binding kinetic analysis. All the samples were prepared in buffer consisting of 10 mM HEPES, 150 mM NaCl, 0.05% Tween-20, 5% glycerol, […], 2% DMSO, pH 7.2. The same buffer was used as the running buffer during the experiments. Compound binding kinetics were measured in either multi-cycle or single-cycle kinetic format.
(§4) Multi-cycle kinetic analysis (MCK): A two-fold, 10-point serial dilution of test compounds was set-up in a 96-well microplate (Greiner; Cat #650101) with a top concentration of either 10 μM or 100 μM. Binding kinetics was measured at 10° C. by injecting serial dilution of compounds onto both reference and CBL immobilized channels at a flow rate of 100 μL/min and association time of 90 seconds. Compound dissociation was monitored for >400 seconds during each cycle. No additional regeneration was used. DMSO calibration curve was obtained before and after compound analysis by injecting 0-4% of DMSO in assay buffer. A suitable compound with known affinity and kinetics was tested once in every experiment as a positive control to assess activity of the captured proteins on the surface.
(§5) Single-cycle kinetic analysis (SCK): A 3-fold, 6-point serial dilution of compounds was set-up in a deep 96-well microplate (Greiner Bio; Cat #780201) with the highest concentration of 1 μM (concentration range: […]). Binding kinetics was measured at 10° C. by injecting serial dilutions of compounds in increasing order onto reference as well as CBL immobilized channels at a flow rate of 100 μL/min and association time of 120 seconds. Compound dissociation was monitored for >5400 seconds. Two buffer blanks were also run in a single-cycle kinetics format before the compound run for double referencing. No additional regeneration was used. DMSO calibration curve was obtained before and after compound analysis by injecting 0-4% of DMSO in the assay buffer. A suitable compound with known affinity and kinetics was tested once in every experiment as a positive control to assess activity of the captured proteins on the surface.

CBL-B (residues 36-427) = target: T2, CBL-B (residues 36-427) (Homo sapiens, UniProt Q13191); assay: Ligand Displacement Assay (LDA), HTRF competitive binding against BODIPY-labeled fluorescent tracer, CBL-B; conditions: geometric mean of the number of tests, read-out: CBL-B Ki (nM) GMean
T2 construct: Purified CBL-B (residues 36-427) and C-CBL (residues 46-435) proteins from baculovirus-infected insect cells; made in house; host or cells: baculovirus-infected insect cells
Text: (§6) Ligand Displacement Assay (LDA)
(§7) The purpose of the homogeneous time-resolved fluorescence energy transfer (HTRF) ligand displacement assay is to determine whether the compounds of the disclosure are competitive with a BODIPY-labeled compound; “fluorescent tracer” aka [6-cyclopropyl-5-(17-{5-[(3,5-dimethyl-2H-pyrrol-2-ylidene-KN)methyl]-1H-pyrrol-2-yl-κN}-15-oxo-5,8,11-trioxa-2,14-diazaheptadecan-1-yl)-N-(3-{3-[(4-methyl-4H-1,2,4-triazol-3-yl)methyl]oxetan-3-yl}phenyl)pyridine-2-carboxamidato](difluorido)boron and to assess CBL-B binding selectivity over C-CBL. The synthesis of this fluorescent tracer compound is described below.
(§8) Purified CBL-B (residues 36-427) and C-CBL (residues 46-435) proteins from baculovirus-infected insect cells were biotin labeled on their amino-terminal AviTag™ epitopes by the E. coli biotin ligase BirA to bind terbium-labeled streptavidin (SA-Tb). After optimizing the assays and determining KD values for the fluorescent tracer to CBL-B and C-CBL, compounds were tested using three-fold serial dilutions in duplicate from a top concentration of […] with a final DMSO concentration of 2%. […] The Ki (nM) values reported are the geometric means (GMean) of the number of tests conducted.

C-CBL (46-435) = target: T3, C-CBL (46-435) (Homo sapiens, UniProt P22681); assay: Surface Plasmon Resonance (SPR) assay, binding affinity and kinetics, C-CBL; conditions: SPR at 10° C., biotinylated C-CBL (46-435) on streptavidin chip; geometric mean; read-out: C-CBL SPR Kd (nM) GMean
T3 construct: N-terminal biotinylated WT CBL-B (36-427) and C-CBL (46-435) were captured on a streptavidin (SA) coated sensor chip
T3 sequence (P22681 46-435): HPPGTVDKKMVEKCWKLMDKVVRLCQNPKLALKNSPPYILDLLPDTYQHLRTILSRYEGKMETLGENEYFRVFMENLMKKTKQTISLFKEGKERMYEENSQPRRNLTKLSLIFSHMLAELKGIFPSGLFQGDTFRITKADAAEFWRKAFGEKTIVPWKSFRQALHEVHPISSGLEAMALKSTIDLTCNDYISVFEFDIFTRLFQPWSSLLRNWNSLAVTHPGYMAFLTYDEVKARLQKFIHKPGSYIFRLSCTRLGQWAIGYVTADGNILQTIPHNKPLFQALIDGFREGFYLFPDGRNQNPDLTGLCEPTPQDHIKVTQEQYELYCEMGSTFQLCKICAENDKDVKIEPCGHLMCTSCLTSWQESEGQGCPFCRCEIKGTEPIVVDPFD
Protocol: as §1, §2, §3, §4, §5

C-CBL (residues 46-435) = target: T4, C-CBL (residues 46-435) (Homo sapiens, UniProt P22681); assay: Ligand Displacement Assay (LDA), HTRF competitive binding against BODIPY-labeled fluorescent tracer, C-CBL; conditions: geometric mean of the number of tests, read-out: C-CBL Ki (nM) GMean
T4 construct: Purified CBL-B (residues 36-427) and C-CBL (residues 46-435) proteins from baculovirus-infected insect cells; made in house; host or cells: baculovirus-infected insect cells
T4 sequence (P22681 46-435): T3 sequence (P22681 46-435)
Text: as §6, §7, §8

| SMILES | Kd (WT CBL-B (36-427)) | Ki (CBL-B (residues 36-427)) | Kd (C-CBL (46-435)) | Ki (C-CBL (residues 46-435)) |
| --- | --- | --- | --- | --- |
| CN1CC[C@H](N(C)c2nc(C(F)(F)F)cc3c(-c4cccc([C@H](c5nncn5C)C5CCC5)c4)n[nH]c23)C1 [Example J12, 3-{3-[(R)-cyclobutyl(4-methyl-4H-1,2,4-triazol-3-yl)methyl]phenyl}-N-methyl-N-[(3S)-1-methylpyrrolidin-3-yl]-5-(trifluoromethyl)-1H-pyrazolo[3,4-c]pyridin-7-amine] | 16.1 nM | 16.1 nM | 240 nM | 118 nM |
| CNc1nc2[nH]nc(-c3cccc([C@H](c4nncn4C)C4CCC4)c3)c2cc1C(F)(F)F [E2, 3-{3-[(R)-cyclobutyl(4-methyl-4H-1,2,4-triazol-3-yl)methyl]phenyl}-N-methyl-5-(trifluoromethyl)-1H-pyrazolo[3,4-b]pyridin-6-amine] | 53.9 nM | 244 nM | 1730 nM | 2650 nM |
| CN1CC[C@H](Oc2nc(C(F)(F)F)cc3c(-c4cccc([C@H](c5nncn5C)C5CCC5)c4)n[nH]c23)C1 [Example J5, 3-{3-[(R)-cyclobutyl(4-methyl-4H-1,2,4-triazol-3-yl)methyl]phenyl}-7-{[(3S)-1-methylpyrrolidin-3-yl]oxy}-5-(trifluoromethyl)-1H-pyrazolo[3,4-c]pyridine] | 3.3 nM | 10 nM | 137 nM | 87.1 nM |
| Cn1cnnc1CC1(c2cccc(-c3n[nH]c4c(CN5CC(F)(F)C5)nc(C(F)(F)F)cc34)c2)COC1 [Example C69, 7-[(3,3-difluoroazetidin-1-yl)methyl]-3-(3-{3-[(4-methyl-4H-1,2,4-triazol-3-yl)methyl]oxetan-3-yl}phenyl)-5-(trifluoromethyl)-1H-pyrazolo[3,4-c]pyridine] | 30.2 nM | 34.5 nM | 208 nM | 185 nM |
| Cn1cnnc1[C@@H](c1cccc(-c2n[nH]c3c(C4CCCCN4)nc(C(F)(F)F)cc23)c1)C1CCC1 (single isomer, unassigned) [Example L2] | 30 nM | 90.1 nM | 307 nM | 721 nM |
| C[C@@H](CO)c1nc(C(F)(F)F)cc2c(-c3cccc([C@H](c4nncn4C)C4CCC4)c3)n[nH]c12 (single isomer, unassigned) [Example K4, (2ξ)-2-[3-{3-[(ξ)-cyclobutyl(4-methyl-4H-1,2,4-triazol-3-yl)methyl]phenyl}-5-(trifluoromethyl)-1H-pyrazolo[3,4-c]pyridin-7-yl]propan-1-ol] | 8.3 nM | 17.6 nM | 207 nM | 156 nM |
| Cn1cnnc1CC1(c2cccc(-c3n[nH]c4cnc(C5CC5)cc34)c2)COC1 [Example B4, 5-cyclopropyl-3-(3-{3-[(4-methyl-4H-1,2,4-triazol-3-yl)methyl]oxetan-3-yl}phenyl)-1H-pyrazolo[3,4-c]pyridine] | 58.7 nM | 73.9 nM | 578 nM | 254 nM |
| C[C@@H]1CN([C@@H](C)c2nc(C(F)(F)F)cc3c(-c4cccc(C5(Cc6nncn6C)COC5)c4)n[nH]c23)CCO1 (single isomer, unassigned) [Example D49] | 5.9 nM | 17.8 nM | 82 nM | 104 nM |
| C[C@@H](c1nc(C(F)(F)F)cc2c(-c3cccc(C4(Cc5nncn5C)COC4)c3)n[nH]c12)N(C)C (single isomer, unassigned) [Example D39] | 14.9 nM | 42.1 nM | 164 nM | 229 nM |
| Cn1cnnc1[C@@H](c1cccc(-c2n[nH]c3c(CN4C[C@@H](O)[C@H](O)C4)nc(C(F)(F)F)cc23)c1)C1CCC1 [Example C74, (3R,4R)-1-{[3-{3-[(R)-cyclobutyl(4-methyl-4H-1,2,4-triazol-3-yl)methyl]phenyl}-5-(trifluoromethyl)-1H-pyrazolo[3,4-c]pyridin-7-yl]methyl}pyrrolidine-3,4-diol] | 3.2 nM | 7.5 nM | 103 nM | 83.1 nM |
| Cn1cnnc1[C@@H](c1cccc(-c2n[nH]c3c(CN[C@H]4C[C@H](O)C4)nc(C(F)(F)F)cc23)c1)C1CCC1 [Example C119, (1r,3r)-3-({[3-{3-[(R)-cyclobutyl(4-methyl-4H-1,2,4-triazol-3-yl)methyl]phenyl}-5-(trifluoromethyl)-1H-pyrazolo[3,4-c]pyridin-7-yl]methyl}amino)cyclobutan-1-ol] | 21.9 nM | 28.7 nM | 254 nM | 220 nM |
| Cn1cnnc1CC1(c2cccc(-c3n[nH]c4c(CN5CCNCC5)nc(C(F)(F)F)cc34)c2)COC1 [Example C64, 3-(3-{3-[(4-methyl-4H-1,2,4-triazol-3-yl)methyl]oxetan-3-yl}phenyl)-7-[(piperazin-1-yl)methyl]-5-(trifluoromethyl)-1H-pyrazolo[3,4-c]pyridine] | 3 nM | 31.2 nM | 65.2 nM | 117 nM |
| CCNC(C)c1nc(C(F)(F)F)cc2c(-c3cccc(C4(Cc5nncn5C)COC4)c3)n[nH]c12 (single isomer, unassigned) [Example C84, (1ξ)-N-ethyl-1-[3-(3-{3-[(4-methyl-4H-1,2,4-triazol-3-yl)methyl]oxetan-3-yl}phenyl)-5-(trifluoromethyl)-1H-pyrazolo[3,4-c]pyridin-7-yl]ethan-1-amine] | 5.8 nM | 25.1 nM | 99 nM | 144 nM |
| Cn1cnnc1[C@@H](c1cccc(-c2n[nH]c3c(CN[C@@H]4CC[C@H](O)C4)nc(C(F)(F)F)cc23)c1)C1CCC1 [Example D34] | 1.8 nM | 6.5 nM | 101 nM | 59.9 nM |
| Cc1cc2c(-c3cccc([C@H](c4nncn4C)C4CCC4)c3)n[nH]c2cn1 [Example A6, 3-{3-[(R)-cyclobutyl(4-methyl-4H-1,2,4-triazol-3-yl)methyl]phenyl}-5-methyl-1H-pyrazolo[3,4-c]pyridine] | 21.4 nM | 51.5 nM | 882 nM | 525 nM |
| C[C@H](c1nc(C(F)(F)F)cc2c(-c3cccc(C4(Cc5nncn5C)COC4)c3)n[nH]c12)N1CCC1 (single isomer, unassigned) [Example D42] | 9.4 nM | 35.3 nM | 59.8 nM | 163 nM |
